Data reported in PMC9223397 (International Journal of Molecular Sciences, 2022).
Where two headings read alike, the source gives them in different places.

Assays:
[1] = target: T1, human Sigma-2 receptor (Sig-2R) (Homo sapiens, UniProt Q5BJF2); assay: Human Sig-2R radioligand assay; assay type: binding; conditions: [3H]-DTG, transfected HEK-293 Sig-1R knockout membranes
T1 construct: expressed in transfected cells; host or cells: HEK-293 Sig-1R knockout (membranes)
Experimental: The binding properties of the compounds to the human Sig-2R were similarly studied in transfected HEK-293 Sig-1R knockout membranes using [^3H]-1,3-di-o-tolylguanidine (DTG) (NET-986, PerkinElmer; Boston, USA) as the radioligand. The assay was carried out with 15 μg of membrane suspension, [^3H]-1,3-di-o-tolylguanidine (DTG) (10 nM, 100 μL), in either the absence or presence of either buffer or 10 μM haloperidol for total (TB) and nonspecific (NSB) binding, respectively, or the corresponding compound concentration. Binding buffer contained Tris-HCl (50 mM, pH 7.4). Plates were incubated at 25 °C for 120 min. After incubation, the reaction mix was transferred to MultiScreen HTS, FC plates (Merck Millipore) presoaked in 0.5% polyethyleneimine, and filtered. Following that, plates were washed with ice-cold Tris-HCl (10 mM, pH 8). Filters were dried and counted, and data were processed as above.

Sig-1R/BiP interaction = assay: BiP/Sig-1R association assay in CHO cells; assay type: cell-based; conditions: for Effect on association between Sig-1R and BiP, compound alone: 30 µM; for Effect on Sig-1R/BiP interaction (concentration-response): CHO cells, 37 °C 30 min, co-IP/ELISA; for Functional profile for Sig-1R: based on BiP/Sig-1R association assay
Experimental: The interaction between Sig-1R and the chaperone BiP was used to identify the functional nature (agonistic or antagonistic) of compounds [38]. The assay was conducted by Amylgen according to their standard assay protocol (https://www.amylgen.fr/ (accessed on 15 May 2022)). Each assay condition consisted of six determinations. In brief, CHO cells were treated with compounds at 37 °C for 30 min and lysed. CHO cell lysates were immunoprecipitated with Sig-1R antibody, and coimmunoprecipitated BiP was detected by ELISA assay. In each experiment, untreated control cell lysates were used to assess the maximal level of Sig1R-BiP interaction and represented 100% of Sig1R-BiP association. Cells treated with compounds at the corresponding concentrations were equally processed, and the level of Sig1R-BiP association in those conditions was referred to as the control condition. In this experimental setting, Sig1R agonists were able to reduce the Sig1R-BiP interaction, while antagonists were not.

[2] = system: SMI-32-positive MNs in spinal cord organotypic cultures; assay: Spinal cord organotypic cultures (SCOC) under chronic excitotoxicity (THA); assay type: cell-based, Sprague–Dawley rats; conditions: THA 100 µM, 28 DIV; tested at 0.03, 0.3, 3, 30 µM
Experimental: SCOCs from lumbar sections of 8-day-old Sprague–Dawley rats were prepared as previously described [39]. Briefly, the spinal cord was collected and cut into 350 μm thick transverse sections with a McIlwain Tissue Chopper. Four lumbar sections were transferred onto Millicell-CM nets (0.4 μm, PICM03050, Millipore) in medium (50% (v/v) minimal essential medium (MEM, M5775, Sigma), 2 mM glutamine, 25 mM HEPES, 25% (v/v) Hank’s Balanced Salt Solution (HBSS^−/−;14175, Gibco; UK) supplemented with 25.6 mg/mL glucose, and 25% (v/v) heat-inactivated horse serum (26050-088, Gibco; New Zealand), pH = 7.2). Cultures were maintained at 37 °C in a 5% CO2 humidified cabin and left to stabilize. After 7 days in vitro (DIV), DL-threo-β-hydroxyaspartic acid (THA; 100 μM: H2775, Sigma Aldrich, St. Louis, MI, USA) was added to induce chronic excitotoxicity [28]. […] In vitro experiments were performed in three independent cultures, with at least 12 different SCOCs for each experimental condition.
Slices were maintained for 28 DIV and then fixed with 4% PFA. […] MN survival was assessed by counting all SMI-32-positive neurons in each spinal cord using the Cell Counter plugin of ImageJ software.

[3] = Plasma levels, spinal nerve injury (rhizotomy) model; assay type: in vivo, female mouse; conditions: ip
Experimental: (§1) The compounds were dissolved in 0.5% hydroxypropyl-methylcellulose (HPMC; H7509, Sigma-Aldrich) in distilled water and were administered by intraperitoneal (i.p.) route twice daily (bid) in a volume of 10 mL/kg. Administrations were given from 30 min after rhizotomy surgery until 42 days post-injury (dpi), the end of the study; in the SOD1^G93A study, treatments were given from 8 to 16 weeks of age (see Figure 6).
Plasma levels were determined in the two in vivo models evaluated to be able to associate the pharmacological activity with the levels present in plasma. […] In the SOD1^G93A model, the plasma levels were evaluated at 16 weeks of age (after 8 weeks of administration) and 15 min after compound administration (5 mg/kg i.p.). Plasma samples were assayed by ultraperformance liquid chromatography−triple quadrupole mass spectrometry (UPLC-MS/MS) after plasma protein precipitation. Results are expressed as mean ± standard deviation (n = 8).

[4] = system: microglia and astrocytes in ventral horn after rhizotomy; assay: Glial reactivity after L4-L5 rhizotomy (Iba1, GFAP immunolabeling); assay type: in vivo, female mice (B6SJL); conditions: 5 mg/kg bid i.p., 42 dpi; for GFAP integrated density ± SEM (astroglial reactivity): untreated 19 × 10^4; for Iba1 integrated density ± SEM (microglial reactivity): untreated 26 × 10^4
Experimental: Surgeries were performed on three-month-old mice under anesthesia with ketamine-xylazine (100–10 mg/kg i.p.) as previously described. Briefly, the L4-L5 spinal roots were exposed by a small laminectomy on the right side. Afterwards, roots were cut at the exit from the intervertebral foramina, and the root stumps were separated. Mice were cared for until recovery in a warm environment. Analgesia was provided with buprenorphine (0.1 mg/kg) for the next 48 h post-surgery.
as §1
For glial cells immunofluorescence, other lumbar spinal cord sections were blocked with 10% normal donkey serum and incubated overnight with primary antibodies rabbit anti-Iba1 (1:500; 019–19741, Wako) and rat anti-GFAP (1:500; 13-0300, Invitrogen) to label microglia and astroglia, respectively. After several washes, sections were incubated with secondary antibodies Alexa Fluor 488-donkey anti-rat (1:500; A-21208, Invitrogen) or Alexa Fluor 594 donkey anti-rabbit (1:500; A21207, Invitrogen). Finally, sides were mounted with Fluoromount-G. To quantify glial cell reactivity, images of the ventral horn were acquired with an epifluorescence microscope (Nikon Eclipse Ni, Japan) using the same conditions for each analyzed marker. After defining a threshold for background correction, the integrated density of GFAP or Iba1 labeling was measured using ImageJ software.

[5] = Tolerability of chronic administration in rhizotomy mice; assay type: in vivo; conditions: twice daily i.p. for 6 weeks, 0.5 and 5 mg/kg
Experimental: as §1

[6] = system: NMJs of hindlimb muscle in SOD1^G93A mice; assay: Neuromuscular junction innervation in SOD1G93A mice; assay type: in vivo, SOD1^G93A male mice; conditions: 5 mg/kg i.p.; 16 weeks of age
Experimental: as §1
For neuromuscular junction (NMJ) labeling, 50 µm thick longitudinal sections of TA muscle were serially cut. Sections were blocked with 5% normal donkey serum and incubated with primary antibodies rabbit anti-synaptophysin (1:500; Ab32127, Abcam, Cambridge, UK) and chicken anti-neurofilament 200 (NF200, 1:1000; AB5539, Millipore, Burlington, MS, USA) 48 h at 4 °C. After washes, sections were incubated overnight with secondary antibody Alexa Fluor 594-donkey anti-rabbit and anti-chicken (1:200; A11042-A21207, Invitrogen, USA) and Alexa 488 conjugated α-bungarotoxin (1:500; B13422, Life Technologies, Carlsbad, CA USA). Confocal images were captured (LSM 700 Axio Observer, Carl Zeiss, Jena, Germany, 40xOil/z0.5), and the maximum projection images generated from 1.3 µm z projections. The proportion of innervated NMJs was calculated by classifying each endplate as occupied (when presynaptic terminals overlie the endplate) or vacant (no presynaptic label in contact with the endplate). At least 60 endplates were analyzed per muscle.

T1 sequence (Q5BJF2 whole entry): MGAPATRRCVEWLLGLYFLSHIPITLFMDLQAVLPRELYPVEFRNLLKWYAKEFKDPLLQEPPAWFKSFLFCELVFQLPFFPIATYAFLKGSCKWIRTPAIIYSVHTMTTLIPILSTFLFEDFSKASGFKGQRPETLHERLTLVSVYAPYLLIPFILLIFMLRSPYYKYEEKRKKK

In the case of `C[C@@H]1OC2(CCN(Cc3ccc(F)cc3)CC2)CN(C)C1=O` [EST79232], the IC50 [1] is reported as over 10 µM, the “Effect on association between Sig-1R and BiP, compound alone” value (Sig-1R/BiP interaction) is reported as “able to reduce the association between Sig-1R and BiP” and the “Effect on Sig-1R/BiP interaction (concentration-response)” value (Sig-1R/BiP interaction) is reported as “concentration-dependent dissociation of Sig-1R from BiP”. For the same compound, the “Functional profile for Sig-1R” value (Sig-1R/BiP interaction) was “agonist”, the “Number of SMI-32-positive MNs vs THA condition” value [2] was “significantly more SMI-32-positive neurons at three concentrations tested” and the concentration at 15 min ([3]; plasma, rhizotomy female mouse, 0.5 mg/kg i.p. bid, day 42, read-out: Plasma Concentration 15 min Post-Administration, Mean) was 20 ng/mL. For the same compound, the concentration at 15 min ([3]; plasma, rhizotomy female mouse, 5 mg/kg i.p. bid, day 42, read-out: Plasma Concentration 15 min Post-Administration, Mean) was 265 ng/mL, the “GFAP integrated density ± SEM (astroglial reactivity)” value [4] was 4 × 10^4 ± 0.4 × 10^4 and the “Iba1 integrated density ± SEM (microglial reactivity)” value [4] was 13 × 10^4 ± 2 × 10^4. For the same compound, the “Toxicity of chronic administration (behavior, body weight)” value [5] was “did not cause overt toxicity in the animals” and the “Proportion of innervated endplates (NMJ) vs vehicle” value [6] was “tendency to preserve NMJ innervation, although differences did not reach statistical significance”.
With `CCN1CC2(CCN(Cc3ccc(C#N)c(F)c3)CC2)O[C@@H](C)C1=O` [EST79376] the IC50 [1] was over 10 µM, the “Effect on association between Sig-1R and BiP, compound alone” value (Sig-1R/BiP interaction) was “had no effect on its own” and the “Effect on Sig-1R/BiP interaction (concentration-response)” value (Sig-1R/BiP interaction) was “did not produce any change in the interaction between the two proteins”. The “Functional profile for Sig-1R” value (Sig-1R/BiP interaction) was “antagonist”, the “Reversion of the effect of PRE-084 on Sig-1R/BiP association” value (Sig-1R/BiP interaction; compound 30 µM, PRE-084 10 µM) was “able to revert the effect of PRE-084” and the “Number of SMI-32-positive MNs vs THA condition” value [2] was “significantly preserved MNs”. For the same compound, the concentration at 15 min ([3]; female, mouse, in vivo, 0.5 mg/kg) was 21 ng/mL, the concentration at 15 min ([3]; female, mouse, in vivo, 5 mg/kg) was 592 ng/mL and the “GFAP integrated density ± SEM (astroglial reactivity)” value [4] was 15 × 10^4 ± 2.7 × 10^4. For the same compound, the “Iba1 integrated density ± SEM (microglial reactivity)” value [4] was 25 × 10^4 ± 4 × 10^4, the “Toxicity of chronic administration (behavior, body weight)” value [5] was “did not cause overt toxicity in the animals” and the “Proportion of innervated endplates (NMJ) vs vehicle” value [6] was “tendency to preserve NMJ innervation, although differences did not reach statistical significance”.
